Reference: patent US5200409A, “Composition and use of substituted 1,3-dithiolo-and 1,4-dithiinoquinoxalines as an antimicrobial” (The Dow Chemical Company, priority 1992, dated 1993)
Values after ≈ are worked out from the molar mass of the structure shown. Like-named read-outs stand apart in the source and are kept apart here.

Assays:
Fusarium oxysporum (Fo) = assay: Minimum inhibitory concentration (MIC) in malt yeast agar; assay type: cell-based, Fusarium oxysporum ATCC 48112; conditions: malt yeast agar; 30° C.; 72 hours for fungi; read-out: Minimum Inhibitory Concentration, Fo
Procedure: (§1) The minimum inhibitory concentration (MIC) for the compounds listed in Table I is determined for 9 bacteria, using nutrient agar: and 7 yeast and fungi, using malt yeast agar. A one percent solution of the test compound is prepared in a mixture of acetone and water. Nutrient agar is prepared at pH 6.8, representing a neutral medium, and at pH 8.2, representing an alkaline medium. The nutrient agars are prepared by adding 23 g of nutrient agar to one-liter of deionized water. In addition, the alkaline medium is prepared by adjusting a 0.04M solution of N-[tris-(hydroxymethyl)methyl]-glycine buffered deionized water with concentrated sodium hydroxide to a pH of […]. Malt yeast agar is prepared by adding 3 g yeast extract and 45 g malt agar per liter of deionized water. The specific agar is dispensed in 30 ml aliquots into 25×200 mm test tubes, capped and autoclaved for 15 minutes at 115° C. The test tubes containing the agar are cooled in a water bath until the temperature of the agar is 48° C. Then, an appropriate amount of the one percent solution of the test compound is added (except in the controls where no compound is added) to the respective test tubes so that the final concentrations are 500, 250, 100, 50, 25, 10, 5, 2.5, 1.0 and zero parts per million of the test compound in the agar, thus having a known concentration of test compound dispersed therein. The contents of the test tubes are then transferred to respective petri plates. After drying for 24 hours, the petri plates containing nutrient agar are inoculated with bacteria and those containing malt yeast agar are inoculated with yeast and fungi.
(§2) The inoculation with the yeast and fungi is accomplished as follows. Cultures of yeast and fungi are incubated for seven days on malt yeast agar at 30° C. These cultures are used to prepare suspensions by the following procedure. A suspension of each organism is prepared by adding 10 ml of sterile saline and 10 microliters of octylphenoxy polyethoxy ethanol to the agar slant of yeast or fungi. The sterile saline/octylphenoxy polyethoxy ethanol solution is then agitated with a sterile swab to suspend the microorganism grown on the slant. Each resulting suspension is diluted into sterile saline (1 part suspension: 9 parts sterile saline). Aliquots of these dilutions are placed in individual wells of Steer's Replicator and petri plates inoculated as previously described. The petri plates are incubated at 30° C. and read after 48 hours for yeast and 72 hours for fungi.
(§3) Table II lists the bacteria, yeast and fungi used in the MIC test described above along with their respective American Type Culture Collection (ATCC) identification numbers.

[1] = test system: Pseudomonas aeruginosa (Pa); assay: Minimum inhibitory concentration (MIC) in nutrient agar; assay type: cell-based, Pseudomonas aeruginosa ATCC 10145; conditions: 48 hours
Procedure: as §1
(§4) The inoculation with bacteria is accomplished by using the following procedure. Twenty-four hour-cultures of each of the bacteria are prepared by incubating the respective bacteria in tubes containing nutrient broth for 24 hours at 30° C. in a shaker. Dilutions of each of the 24 hour-cultures are made so that nine separate suspensions (one for each of the nine test bacteria) are made, each containing 10^8 colony forming units (CFU) per ml of suspension of a particular bacteria. Aliquots of 0.3 ml of each of the bacterial suspensions are used to fill the individual wells of Steer's Replicator. For each microbial suspension, 0.3 ml was used to fill three wells (i.e., three wells of 0.3 ml each) so that for the nine different bacteria, 27 wells are filled. The Steer's Replicator is then used to inoculate both the neutral and alkaline pH nutrient agar petri plates.
(§5) The inoculated petri plates are incubated at 30° C. for 48 hours and then read to determine if the test compound which is incorporated into the agar prevented growth of the respective bacteria.
as §3

Aspergillus niger (An) = assay: Minimum inhibitory concentration (MIC) in malt yeast agar; assay type: cell-based, Aspergillus niger ATCC 16404; conditions: malt yeast agar; 30° C.; 72 hours for fungi; read-out: Minimum Inhibitory Concentration, An
Procedure: as §1, §2, §3

Escherichia coli (Ec) = assay: Minimum inhibitory concentration (MIC) in nutrient agar; assay type: cell-based, Escherichia coli ATCC 11229
Procedure: as §1, §4, §5, §3

Trichoderma viride (Tv) = assay: Minimum inhibitory concentration (MIC) in malt yeast agar; assay type: cell-based, Trichoderma viride ATCC 8678; conditions: malt yeast agar; 30° C.; 72 hours for fungi; read-out: Minimum Inhibitory Concentration, Tv
Procedure: as §1, §2, §3

[2] = test system: Enterobacter aerogenes (Ea); assay: Minimum inhibitory concentration (MIC) in nutrient agar; assay type: cell-based, Enterobacter aerogenes ATCC 13048; conditions: Klebsiella aerogenes
Procedure: as §1, §4, §5, §3

[3] = test system: Pseudomonas aeruginosa (PRD-10); assay: as above; assay type: cell-based, Pseudomonas aeruginosa ATCC 15442
Procedure: as §1, §4, §5, §3

Bacillus subtilis (Bs) = assay: as above; assay type: cell-based, Bacillus subtilis ATCC 8473
Procedure: as §1, §4, §5, §3

[4] = test system: Staphylococcus aureus (Sa); assay: as above; assay type: cell-based, Staphylococcus aureus ATCC 6538
Procedure: as §1, §4, §5, §3

[5] = test system: Klebsiella pneumoniae (Kp); assay: as above; assay type: cell-based, Klebsiella pneumoniae ATCC 8308
Procedure: as §1, §4, §5, §3

[6] = test system: Saccharomyces cerevisiae (Sc); assay: Minimum inhibitory concentration (MIC) in malt yeast agar; assay type: cell-based, Saccharomyces cerevisiae ATCC 4105; conditions: malt yeast agar, 30° C., 48 hours for yeast, read-out: Minimum Inhibitory Concentration, Sc
Procedure: as §1, §2, §3

[7] = test system: Penicillium chrysogenum (Pc); assay: as above; assay type: cell-based, Penicillium chrysogenum ATCC 9480; conditions: malt yeast agar; 30° C.; 72 hours for fungi; read-out: Minimum Inhibitory Concentration, Pc
Procedure: as §1, §2, §3

Proteus vulgaris (Pv) = assay: Minimum inhibitory concentration (MIC) in nutrient agar; assay type: cell-based, Proteus vulgaris ATCC 881
Procedure: as §1, §4, §5, §3

[8] = test system: Salmonella choleraesuis (Sc); assay: as above; assay type: cell-based, Salmonella choleraesuis ATCC 10708; conditions: Salmonella enterica
Procedure: as §1, §4, §5, §3

Candida albicans (Ca) = assay: Minimum inhibitory concentration (MIC) in malt yeast agar; assay type: cell-based, Candida albicans ATCC 10231; conditions: malt yeast agar; 30° C.; 48 hours for yeast; read-out: Minimum Inhibitory Concentration, Ca
Procedure: as §1, §2, §3

[9] = test system: Aureobasidium pullulan (Ap); assay: as above; assay type: cell-based, Aureobasidium pullulan ATCC 16622; conditions: malt yeast agar; 30° C.; 48 hours for yeast and 72 hours for fungi; read-out: Minimum Inhibitory Concentration, Ap
Procedure: as §1, §2, §3

[10] = 48 h, pH 8.2, read-out: Minimum Inhibitory Concentration, Ec
[11] = pH 6.8, nutrient agar, 30° C., 48 hours, read-out: Minimum Inhibitory Concentration, Kp

N#CC(C#N)=C1Sc2nc3ccccc3nc2S1 [Compound P, 1,3-dithiolo-(4,5-b)-quinoxaline-2-ylidene-propanedinitrile]
MIC (Fusarium oxysporum (Fo)): > 500 µg/mL | MIC ([1]; pH 6.8, 30° C.): > 500 µg/mL | MIC ([1]; pH 8.2, 30° C.): > 500 µg/mL | MIC (Aspergillus niger (An)): 500 µg/mL (≈ 1860 µM) | MIC (Escherichia coli (Ec); 48 h, pH 6.8, read-out: Minimum Inhibitory Concentration, Ec): > 500 µg/mL | MIC (Escherichia coli (Ec); [10]): > 500 µg/mL | MIC (Trichoderma viride (Tv)): > 500 µg/mL | MIC ([2]; 48 h, pH 6.8, read-out: Minimum Inhibitory Concentration, Ea): > 500 µg/mL | MIC ([2]; 48 h, pH 8.2, read-out: Minimum Inhibitory Concentration, Ea): > 500 µg/mL | MIC ([3]; 48 h, pH 6.8, read-out: Minimum Inhibitory Concentration, PRD): > 500 µg/mL | MIC ([3]; 48 h, pH 8.2, read-out: Minimum Inhibitory Concentration, PRD): > 500 µg/mL | MIC (Bacillus subtilis (Bs); 48 h, pH 6.8, read-out: Minimum Inhibitory Concentration, Bs): > 500 µg/mL | MIC (Bacillus subtilis (Bs); 48 h, pH 8.2, read-out: Minimum Inhibitory Concentration, Bs): > 500 µg/mL | MIC ([4]; 48 h, pH 8.2, read-out: Minimum Inhibitory Concentration, Sa): > 500 µg/mL | MIC ([4]; pH 6.8, nutrient agar, 30° C., 48 hours, read-out: Minimum Inhibitory Concentration, Sa): > 500 µg/mL | MIC ([5]; 48 h, pH 8.2, read-out: Minimum Inhibitory Concentration, Kp): > 500 µg/mL | MIC [5, 11]: > 500 µg/mL | MIC [6]: > 500 µg/mL | MIC [7]: 500 µg/mL (≈ 1860 µM) | MIC (Proteus vulgaris (Pv); 48 h, pH 6.8, read-out: Minimum Inhibitory Concentration, Pv): > 500 µg/mL | MIC (Proteus vulgaris (Pv); 48 h, pH 8.2, read-out: Minimum Inhibitory Concentration, Pv): > 500 µg/mL | MIC ([8]; 48 h, pH 6.8, read-out: Minimum Inhibitory Concentration, Sc): > 500 µg/mL | MIC ([8]; 48 h, pH 8.2, read-out: Minimum Inhibitory Concentration, Sc): > 500 µg/mL | MIC (Candida albicans (Ca)): > 500 µg/mL | MIC [9]: 500 µg/mL (≈ 1860 µM)

Cc1cc2nc3c(nc2cc1[N+](=O)[O-])SC(C#N)=C(C#N)S3 [F, 7-nitro-8-methyl-1,4-dithiino-(2,3-b)-quinoxaline-2,3-dicarbonitrile]
MIC (Fusarium oxysporum (Fo)): < 10 µg/mL | MIC ([1]; pH 6.8, 30° C.): 500 µg/mL (≈ 1530 µM) | MIC ([1]; pH 8.2, 30° C.): > 500 µg/mL | MIC (Aspergillus niger (An)): < 10 µg/mL | MIC (Escherichia coli (Ec); [10]): > 500 µg/mL | MIC (Escherichia coli (Ec); pH 6.8, nutrient agar, 30° C., 48 hours, read-out: Minimum Inhibitory Concentration, Ec): 250 µg/mL (≈ 764 µM) | MIC (Trichoderma viride (Tv)): 25 µg/mL (≈ 76.4 µM) | MIC ([2]; pH 6.8, nutrient agar, 30° C., 48 hours, read-out: Minimum Inhibitory Concentration, Ea): 500 µg/mL (≈ 1530 µM) | MIC ([2]; pH 8.2, nutrient agar, 30° C., 48 hours, read-out: Minimum Inhibitory Concentration, Ea): > 500 µg/mL | MIC ([3]; pH 6.8, nutrient agar, 30° C., 48 hours, read-out: Minimum Inhibitory Concentration, PRD): > 500 µg/mL | MIC ([3]; pH 8.2, nutrient agar, 30° C., 48 hours, read-out: Minimum Inhibitory Concentration, PRD): > 500 µg/mL | MIC (Bacillus subtilis (Bs); pH 6.8, nutrient agar, 30° C., 48 hours, read-out: Minimum Inhibitory Concentration, Bs): < 10 µg/mL | MIC (Bacillus subtilis (Bs); pH 8.2, nutrient agar, 30° C., 48 hours, read-out: Minimum Inhibitory Concentration, Bs): 50 µg/mL (≈ 153 µM) | MIC ([4]; 48 h, pH 6.8, read-out: Minimum Inhibitory Concentration, Sa): < 10 µg/mL | MIC ([4]; pH 8.2, nutrient agar, 30° C., 48 hours, read-out: Minimum Inhibitory Concentration, Sa): 50 µg/mL (≈ 153 µM) | MIC [5, 11]: 100 µg/mL (≈ 305 µM) | MIC ([5]; pH 8.2, nutrient agar, 30° C., 48 hours, read-out: Minimum Inhibitory Concentration, Kp): > 500 µg/mL | MIC [6]: < 10 µg/mL | MIC [7]: < 10 µg/mL | MIC (Proteus vulgaris (Pv); pH 6.8, nutrient agar, 30° C., 48 hours, read-out: Minimum Inhibitory Concentration, Pv): 50 µg/mL (≈ 153 µM) | MIC (Proteus vulgaris (Pv); pH 8.2, nutrient agar, 30° C., 48 hours, read-out: Minimum Inhibitory Concentration, Pv): > 500 µg/mL | MIC ([8]; pH 6.8, nutrient agar, 30° C., 48 hours, read-out: Minimum Inhibitory Concentration, Sc): 250 µg/mL (≈ 764 µM) | MIC ([8]; pH 8.2, nutrient agar, 30° C., 48 hours, read-out: Minimum Inhibitory Concentration, Sc): > 500 µg/mL | MIC (Candida albicans (Ca)): < 10 µg/mL | MIC [9]: < 10 µg/mL
